# Results reported in patent US20060293231A1, “Method for enhancing bone formation” (priority 2004, published 2006).
# “And” between values parts separate entries of the source, which are not always exact repeats. Equal entries are not always repeated. “Also recorded” adds a separate entry of the source.
# How the values were obtained:
# Format in all cases: cell-based, human
# [1] = system: platelet-rich plasma (PRP); assay: PRP clot retraction (clot diameter normalized against well diameter; released fluid volume)
# Protocol: (§1) PRP (0.5 mL) aliquots were dispensed into 24-well plates precoated with 1% bovine serum albumin (Sigma, St Louis, Mo.). Thirty microliters of 10% CaCl2 solution (American Reagent Laboratories, Shirley, N.Y.) were added to each well. Experiments were performed in triplicate (n=3) with the addition of bovine thrombin (30, 100, 300 units; GenTrac, Middleton, Wis.) or TRAP (10, 50, 100 μmol/L; Bachem Bioscience Inc, King of Prussia, Pa.). At 30 minutes, if still attached, the clots were gently released from the sides of the culture well with a pipette tip. PRP prepared with CaCl2 solution […] the addition of thrombin or TRAP served as the control group.
# (§2) Clotting times were monitored by visualization. Clot retraction was determined by measuring the clot diameter at 1, 2, 4, and 24 hours, and the value was normalized against the well diameter. • Preparation of Platelet-Rich Plasma-Bone Substitute Composites with Thrombin Receptor Agonist Peptide-6
# (§3) After the optimization of TRAP concentration, experiments were repeated with the addition of 25 or 50 mg of bone substitutes. To minimize nonspecific binding, the culture well (Corning Inc, Corning, N.Y.) was precoated with 1% bovine serum albumin (Sigma) and incubated for 1.5 hours at 37° C. Sterilized BioOss (25 mg, 0.5 to 1.0 mm; Osteohealth, Shirley, N.Y.), AlloGro (25 mg; Ceramed, Lakewood, Colo.), and 45S5 Bioactive Glass (25 mg, 300 μm; Mo-Sci, Rolla, Minn.) were uniformly dispersed within the wells. Fresh PRP (0.5 mL) aliquots were then dispensed into the precoated 24-well plates, and 30 μl of 10% CaCl2 solution (American Reagent Laboratories, Shirley, N.Y.) was added to each well. Experiments were performed in triplicate (n=3) with the addition of TRAP (H2N-Ser-Phe-Leu-Leu-Arg-Asn-NH2) to the wells containing bone substitutes. • Growth Factor Release from Platelet-Rich Plasma Prepared with Thrombin or Thrombin Receptor Agonist Peptide-6
# (§4) The temporal release of growth factors was examined as a function of time and mode of PRP preparation. Specifically, the PRP clotted with thrombin or TRAP was allowed to gel, and all samples were incubated at 37° C. in a humidified environment for up to 14 days. The volume of fluid released from the clot was measured. Growth factor release was assessed at 1, 3, 7, and 14 days. All collected supernatant samples were stored at −70° C. before analysis. • Quantification of Platelet-Derived Growth Factor and Transforming Growth Factor-β
# TGFβ = TGFβ release from PRP clots and PRP composites (enzyme immunoassay of supernatant); conditions: for TGFβ release/retention post clotting, comparison between groups: day 1 post clotting, p<0.05
# Protocol: (§5) PRP composites were prepared by mixing PRP and TRAP with bone substitutes commonly utilized in the clinical setting. Twenty four-well plates (Corning Inc., Corning, N.Y.) were coated with 1% bovine serum albumin (Sigma, St. Louis, Mo.) and incubated for 1.5 hours at 37° C. Sterilized BioOss (25 mg, 0.5-1.0 mm), AlloGro (25 mg), and 45S5 Bioactive Glass (25 mg, […]) were uniformly dispersed within the wells. Fresh PRP (0.5 ml) aliquots were then dispensed into the pre-coated 24-well plates, and 30 μl of 10% calcium chloride solution were added to each well. Experiments were performed in triplicate (n=3) with the addition of bovine thrombin (75 units) or thrombin receptor activating peptide (TRAP, H2N-Ser-Phe-Leu-Leu Arg-Asn-NH2). TRAP was used to clot PRP for all bone substitute groups examined. • Growth Factor Release—Effects of Bone Substitute and Incubation Mode
# (§6) The temporal release of growth factors was examined as a function of bone substitute and mode of sample incubation. Specifically, the PRP composites were allowed to clot, and all samples were incubated at 37° C. and humidified environment for up to 14 days. The media were exchanged for all groups at 1 day after incubation. The volume of fluid released from the clot was measured and equal volume of fresh Dulbecco's Modification of Eagle's Medium (DMEM, Mediatech, Herdon, Va.) without serum was added back to each well. Subsequently, in the dynamic incubation mode (Group 1), the fluid released from the clot was collected and equal volume of fresh DMEM was added back into the well at 3, 7, and 14 days. In the static mode (Group 2), the media was exchanged only at the designated time points (7 and 14 days). All collected supernatant samples were stored at −70° C. prior to analyses. • Quantification of PDGF and TGFβ
# TGFβ was assayed with a similar enzyme immunoassay technique. A dilution series of TGFβ standards was prepared in 100 μl volumes in 96-well microtiter plates coated with TGFβ receptor Type II. The sample supernatants (0.025 ml) obtained from PRP composites were diluted with 0.075 ml of phosphate buffer saline solution. The samples were then activated with 0.1 ml of 1.0 N HCl incubated at room temperature for 10 minutes, neutralized by an addition of 0.1 ml of 1.2 N NaOH/0.5 M HEPES (N-[2-hydroxyethyl] piperazine-N-[2-ethanesulfonic acid]). The supernatant fractions were then incubated for 3 hours at room temperature. The wells were then washed and enzyme-conjugated polyclonal antibody to TGFβ1 was added and allowed to incubate for 1.5 hours at room temperature. The reaction was stopped and absorbance was measured at 450 nm using a spectrophotometer (SpectraFluor Plus, Tecan, Maennedorf, Switzerland). A standard curve was generated and the TGFβ levels (pg/ml) of each sample were determined. The total amount of growth factors was calculated based on the amount of supernatant obtained after clot retraction. • Statistical Analyses
# as §4
# TGFβ was assayed with a similar enzyme immunoassay technique. A dilution series of TGFβ standards were prepared in 96-well microtiter plates coated with TGFβ receptor Type II. The sample supernatants (0.025 mL) obtained from PRP composites were diluted with 0.075 mL of phosphate-buffered saline solution. […]
# PDGF-AB = PDGF-AB release from PRP clots and PRP composites (sandwich enzyme immunoassay of supernatant); conditions: for effect of media exchange on PDGF release: Group 1 (dynamic mode) versus Group 2 (static mode, less frequent exchange)
# Protocol: as §5, §6
# Supernatants collected from all time points for both Group 1 and 2 were assayed for PDGF-AB and TGFβ content using diagnostic kits from R & D Systems (Minneapolis, Minn.). Both assays are based on a sandwich enzyme immunoassay technique. The PDGF-AB assay uses a pre-coated microtiter plate with a monoclonal antibody to PDGF-AA. Preparation and dilution of samples and standards were performed as directed by the manufacturer. Both the standards and the samples were incubated for 3 hours at room temperature. The plate was washed with buffer and a conjugated antibody to PDGF-BB was added to the wells and incubated at room temperature for an additional 1 hour. The plate was then washed and substrate added for 20 minutes at room temperature. The reaction was stopped and absorbance was determined at 450 nm using a spectrophotometer (SpectraFluor Plus, Tecan, Maennedorf, Switzerland). A standard curve was generated and the PDGF-AB levels (pg/ml) of each sample were determined. The total amount of growth factor was calculated based on the amount of supernatant obtained after clot retraction.
# as §4
# Supernatants were assayed for PDGF-AB and TGFβ content using diagnostic kits from R & D Systems (Minneapolis, Minn.). Both assays are based on a sandwich enzyme immunoassay technique. The PDGF-AB assay used a precoated microtiter plate with a monoclonal antibody to PDGF-AA. Preparation and dilution of samples and standards were performed as directed by the manufacturer. Both the standards and the samples were incubated for 3 hours at room temperature. […]
# [2] = system: platelet-rich plasma (PRP); assay: Clotting time of platelet-rich plasma (visual)
# Protocol: as §5, §1, §2, §3
substance,measurement,setting,value
"H2N-Ser-Phe-Leu-Leu-Arg-Asn-NH2 [TRAP, reference compound]",decrease in the clot diameter,[1]; TRAP 50 μmol/L,15%
same,decrease in the clot diameter,[1]; TRAP 100 μmol/L,15%
same,TGFβ retained compared to the thrombin group,"TGFβ; Example 1, time not stated (day 1 context)",39.2%
same,"TGFβ retained, more than the thrombin group","TGFβ; Example 2, at 72 hours",39.2%
same,"TGFβ release/retention post clotting, comparison between groups",TGFβ,significantly lower levels
same,PDGF-AB released,"PDGF-AB; Example 1, at 7 days","11,624 pg"
same,PDGF-AB released,"PDGF-AB; Example 1, day 1","20,642 pg"
same,PDGF-AB released,"PDGF-AB; Example 2, at 7 days, mean±SD","2,797.6±612.0 pg"
same,PDGF-AB released,"PDGF-AB; Example 2, day 1, mean±SD","20,642±1,170.0 pg"
same,effect of media exchange on PDGF release,PDGF-AB,no statistically significant effects; also recorded: No significant difference
same,time for the clot to completely solidify,"[2]; Example 1, TRAP at 100 μm",14.5 min
same,time for the clot to completely solidify,"[2]; Example 2, TRAP at 100 μmol/L",9.25 min
"thrombin: bovine thrombin (GenTrac), serine protease used as standard PRP clotting agent",clot retraction,[1]; 30 units of thrombin,34%
same,shrinkage of the clot (clot retraction),"[1]; 100 units of thrombin, all time points",43%
same,volume of supernatant released from the clot,"[1]; all time points, comparison between groups",largest release volume
same,clot retraction,"[1]; at 24 hours, TRAP with 25 mg bone substitute, thrombin 100 units",56%±3% and 56%
same,TGFβ release from the clot after 14 days,TGFβ; after 14 days,all of the TGFβ present in the original PRP thrombin clots had been released; also recorded: all the TGFβ in thrombin clots was released
same,"TGFβ release/retention post clotting, comparison between groups",TGFβ,highest amount
same,TGFβ already released from the clot,"TGFβ; within 24 hours, of total TGFβ in original PRP",over 81.4%
same,PDGF-AB released,"PDGF-AB; Example 1, at 7 days","5,068 pg"
same,PDGF-AB released,"PDGF-AB; Example 1, day 1","32,526 pg"
same,PDGF-AB released,"PDGF-AB; Example 2, at 7 days, mean±SD","1,738.2 ±443.0 pg"
same,PDGF-AB released,"PDGF-AB; Example 2, day 1, mean±SD","32,526±6,752.4 pg"
same,effect of media exchange on PDGF release,PDGF-AB,No significant difference
same,effect of media exchange on PDGF release,PDGF-AB; listed as Thrombin,no statistically significant effects
same,"PDGF-AB release, more than the TRAP group",PDGF-AB; day 1,approximately 36%
same,time to complete polymerization of PRP,"[2]; Example 1, 30 units of thrombin added to 0.5 ml PRP mixture",6 min
same,time to clot formation,"[2]; Example 1, 100 units thrombin, 0.5 ml PRP",1.25 min
same,time to clot formation,"[2]; Example 1, 300 units thrombin, 0.5 ml PRP",1.25 min
same,time to complete polymerization of PRP,"[2]; Example 2, 30 units of thrombin added to 0.5 mL PRP mixture",6 min
same,time to clot formation,"[2]; Example 2, 100 units thrombin",3.25 min
